Experimental data taken from US4628104A, “Imidazole ketone derivatives” (G. D. Searle & Co., priority 1985, dated 1986).
Values after ≈ are worked out from the molar mass of the structure shown. Values joined by “and” are separate entries in the source; they are usually repeats but may differ in a detail not shown here. Identical values can stand only once. Counter-ions that a name gives are not always drawn. Like-named read-outs stand apart in the source and are kept apart here.

Assays:
[1] = tested on: Propionibacterium acnes NCTC 737; assay: Anti-anaerobic activity, additional strains, strain N; format: cell-based; settings: Cutibacterium acnes, NCTC737
[2] = tested on: Peptostreptococcus anaerobicus ATCC 27337; assay: Anti-anaerobic activity, additional strains, strain M; settings: ATCC27337
[3] = tested on: Clostridium perfringens NCTC 8237; assay: microbe, parasite or virus in culture; format: cell-based; settings: NCTC8237, strain G
[4] = tested on: B. fragilis MZ-R ATCC 11295; assay: Anti-anaerobic activity, microtitre plate broth dilution, strain D; format: cell-based, Bacteroides fragilis; settings: for MBC / MIC: Bacteroides fragilis, ATCC11295, 48 h; for MBC: 99.9% reduction in viable count, 48 hours, read-out: MBC (Minimum Bactericidal Concentration); for MIC: read-out: MIC (Minimum Inhibitory Concentration)
[5] = tested on: Peptococcus magnus ATCC 29328; assay: Anti-anaerobic activity, additional strains, strain K; format: cell-based; settings: Finegoldia magna, ATCC29328
[6] = tested on: Clostridium perfringens NCTC 523; assay: microbe, parasite or virus in culture; format: cell-based; settings: NCTC523
[7] = tested on: B. fragilis NCTC 9344; assay: Anti-anaerobic activity, microtitre plate broth dilution, strain C; format: cell-based; settings: Bacteroides fragilis, NCTC9344, 48 h; for MBC: 99.9% reduction in viable count, 48 hours, read-out: MBC (Minimum Bactericidal Concentration); for MIC: 48 hours at 37° C., anaerobic, read-out: MIC (Minimum Inhibitory Concentration)
[8] = tested on: Campylobacter fetus ATCC 29428; assay: Anti-anaerobic activity, additional strains, strain I; settings: ATCC29428
[9] = tested on: Propionibacterium acnes NCTC 7337; assay: Anti-anaerobic activity, additional strains, strain O; format: cell-based; settings: Cutibacterium acnes, NCTC7337
[10] = tested on: Peptococcus prevotti ATCC 9321; assay: Anti-anaerobic activity, additional strains, strain L; format: cell-based
[11] = tested on: Fusobacterium necrophorum ATCC 11295; assay: Anti-anaerobic activity, additional strains, strain J; format: cell-based
[12] = tested on: B. fragilis NCTC 9343; assay: Anti-anaerobic activity, microtitre plate broth dilution, strain B; format: cell-based, Bacteroides fragilis; settings: for MBC / MIC: Bacteroides fragilis, NCTC9343, 48 h; for MBC: read-out: MBC (Minimum Bactericidal Concentration); for MIC: read-out: MIC (Minimum Inhibitory Concentration)
[13] = tested on: Clostridium difficile CI; assay: Anti-anaerobic activity, additional strains, strain H; settings: Clostridioides difficile
[14] = tested on: B. fragilis WS-1; assay: Anti-anaerobic activity, microtitre plate broth dilution, strain E; format: cell-based; settings: Bacteroides fragilis, WS1, 48 h, 48 hours at 37° C., read-out: MIC (Minimum Inhibitory Concentration)
[15] = tested on: B. fragilis NCTC 10581; assay: Anti-anaerobic activity, microtitre plate broth dilution, strain A; format: cell-based, Bacteroides fragilis; settings: for MBC / MIC: Bacteroides fragilis, NCTC10581, 48 h; for MBC: read-out: MBC (Minimum Bactericidal Concentration); for MIC: 48 hours at 37° C., anaerobic, read-out: MIC (Minimum Inhibitory Concentration)
[16] = strain D, 48 hours at 37° C., anaerobic
[17] = 99.9% reduction in viable count, 48 hours
[18] = strain A, 99.9% reduction in viable count, 48 hours
[19] = ATCC11295, strain J, read-out: MIC

| Structure (SMILES) | MIC [2] [µg/mL] | MIC [3] [µg/mL] | MBC ([4]; strain D) [µg/mL] | MIC [4, 16] [µg/mL] | MIC [6] [µg/mL] | MBC [7] [µg/mL] | MIC [7] [µg/mL] | MIC [8] [µg/mL] | MBC [12, 17] [µg/mL] | MIC ([12]; 48 hours at 37° C., anaerobic) [µg/mL] | MIC [14] [µg/mL] | MBC [15, 18] [µg/mL] | MIC ([15]; strain A) [µg/mL] | MIC ([1]; strain N, read-out: MIC) [µg/mL] | MIC [11, 19] [µg/mL] | also measured |
| --- | --- | --- | --- | --- | --- | --- | --- | --- | --- | --- | --- | --- | --- | --- | --- | --- |
| O=C(c1ccc(Cl)cc1Cl)C(Cn1ccnc1)c1ccccc1 (stereo not drawn) [Example 2, 1-(2,4-Dichlorophenyl)-3-(imidazol-1-yl)-2-phenylpropan-1-one] | 0.8 (≈ 2.32 µM) | 0.8 (≈ 2.32 µM) | 0.8 (≈ 2.32 µM) | 0.8 (≈ 2.32 µM) | 0.8 (≈ 2.32 µM) | 0.8 (≈ 2.32 µM) | 0.8 (≈ 2.32 µM) | 0.8 (≈ 2.32 µM) | 0.8 (≈ 2.32 µM) | 0.8 (≈ 2.32 µM) | 0.8 (≈ 2.32 µM) | 0.8 (≈ 2.32 µM) | 0.8 (≈ 2.32 µM) |  |  | MIC [1]: 0.8 µg/mL (≈ 2.32 µM); MIC [5]: 0.8 µg/mL (≈ 2.32 µM); MIC [9]: 0.8 µg/mL (≈ 2.32 µM); MIC [10]: 0.8 µg/mL (≈ 2.32 µM); MIC ([11]; ATCC11295): 0.8 µg/mL (≈ 2.32 µM); MIC [13]: 0.8 µg/mL (≈ 2.32 µM) |
| Cc1ccc(C(Cn2ccnc2)C(=O)c2ccc(Cl)cc2Cl)cc1 (stereo not drawn) [Example 15, 1-(2,4-Dichlorophenyl)-3-(imidazol-1-yl)-2-(4-methylphenyl) propan-1-one] |  | 0.6 (≈ 1.67 µM) | 0.8 (≈ 2.23 µM) | 0.8 (≈ 2.23 µM) | 0.3 (≈ 0.835 µM) | 0.8 (≈ 2.23 µM) | 0.8 (≈ 2.23 µM) |  | 0.8 (≈ 2.23 µM) | 0.8 (≈ 2.23 µM) | 0.8 (≈ 2.23 µM) | 0.8 (≈ 2.23 µM) | 0.8 (≈ 2.23 µM) | 0.6 (≈ 1.67 µM) | 0.3 (≈ 0.835 µM) | MIC ([9]; strain O, read-out: MIC): 0.1 µg/mL (≈ 0.278 µM) |
| Cc1ccc(C(Cn2cncn2)C(=O)c2ccc(Cl)cc2Cl)cc1 (stereo not drawn) [Example 16, 1-(2,4-Dichlorophenyl)-2-(4-methylphenyl)-3-(1,2,4-triazol-1-yl)propan-1-one hydrochloride] |  |  | 15 | 0.8 |  | 3.1 | 3.1 |  | 3.1 | 3.1 | 1.5 | 3.1 | 3.1 |  |  |  |
| CCCCCCCC(=O)C(Cn1ccnc1)c1ccc(C)cc1 (stereo not drawn) [Example 17, 1-(Imidazol-1-yl)-2-(4-methylphenyl)decan-3-one hydrochloride] |  |  | 100 | 3.1 |  |  |  |  | 100 | 12.5 | 12.5 | 100 | 12.5 |  |  |  |
| O=C(c1cc(Cl)cc(Cl)c1)C(Cn1ccnc1)c1ccccc1 (stereo not drawn) [Example 18, 1-(3,5-Dichlorophenyl)-3-(imidazol-1yl)-2-phenyl propan-1-one] | 6.2 (≈ 18 µM) | 3.1 (≈ 8.98 µM) | 1.5 (≈ 4.34 µM) | 0.8 (≈ 2.32 µM) | 3.1 (≈ 8.98 µM) | 0.8 (≈ 2.32 µM) | 0.8 (≈ 2.32 µM) | 3.1 (≈ 8.98 µM) | 1.5 (≈ 4.34 µM) | 1.5 (≈ 4.34 µM) | 1.5 (≈ 4.34 µM) | 1.5 (≈ 4.34 µM) | 0.8 (≈ 2.32 µM) | 6.2 (≈ 18 µM) | 6.2 (≈ 18 µM) | MIC [5]: 3.1 µg/mL (≈ 8.98 µM); MIC [9]: 3.1 µg/mL (≈ 8.98 µM); MIC [10]: 3.1 µg/mL (≈ 8.98 µM); MIC ([13]; strain H): 1.5 µg/mL (≈ 4.34 µM) |
| O=C(c1cccnc1)C(Cn1ccnc1)c1ccccc1 (stereo not drawn) [Example 19, 3-(Imidazol-1-yl)-2-phenyl-1-(3-pyridyl)propan-1-one] |  |  | 50 (≈ 180 µM) | 12.5 (≈ 45.1 µM) |  | 50 (≈ 180 µM) | 12.5 (≈ 45.1 µM) |  | 50 (≈ 180 µM) | 12.5 (≈ 45.1 µM) | 6.2 (≈ 22.4 µM) | 50 (≈ 180 µM) | 12.5 (≈ 45.1 µM) |  |  |  |
| O=C(c1cccnc1)C(Cn1cncn1)c1ccccc1 (stereo not drawn) [Example 20, 2-Phenyl-1-(3-pyridyl)-3-(1,2,4-triazol-1-yl)propan-1-one] |  |  |  | 100 (≈ 359 µM) |  |  | 100 (≈ 359 µM) |  |  | 100 (≈ 359 µM) | 100 (≈ 359 µM) |  | 100 (≈ 359 µM) |  |  |  |
| O=C(c1ccccn1)C(Cn1ccnc1)c1ccccc1 (stereo not drawn) [Example 21, 3-(Imidazol-1-yl)-2-phenyl-1-(2-pyridyl)propan-1-one] |  |  | 6.2 (≈ 22.4 µM) | 6.2 (≈ 22.4 µM) |  | 12.5 (≈ 45.1 µM) | 6.2 (≈ 22.4 µM) |  | 25 (≈ 90.1 µM) | 25 (≈ 90.1 µM) | 25 (≈ 90.1 µM) | 12.5 (≈ 45.1 µM) | 12.5 (≈ 45.1 µM) |  |  |  |
| CC(C)(C)C(Cn1ccnc1)C(=O)c1ccc(Cl)cc1Cl (stereo not drawn) [Example 22, 1-(2,4-Dichlorophenyl)-3,3-dimethyl-2-(imidazol-1-ylmethyl)butan-1-one] |  |  |  | 50 (≈ 154 µM) |  |  | 50 (≈ 154 µM) |  |  | 50 (≈ 154 µM) | 100 (≈ 307 µM) |  | 50 (≈ 154 µM) |  |  |  |
| O=C(c1ccc(Cl)cc1Cl)C(Cn1cncn1)c1ccccc1 (stereo not drawn) [Example 23, 1-(2,4-Dichlorophenyl)-2-phenyl-3-(1,2,4-triazol-1-yl) propan-1-one] |  |  | 0.8 (≈ 2.31 µM) | 0.8 (≈ 2.31 µM) |  | 0.8 (≈ 2.31 µM) | 0.8 (≈ 2.31 µM) |  | 0.8 (≈ 2.31 µM) | 0.8 (≈ 2.31 µM) | 0.8 (≈ 2.31 µM) | 0.8 (≈ 2.31 µM) | 0.8 (≈ 2.31 µM) |  |  |  |
| CSc1nccn1CC(C(=O)c1ccc(Cl)cc1Cl)c1ccccc1 (stereo not drawn) [Example 24, 1-(2,4-Dichlorophenyl)-2-phenyl-3-(2-thiomethylimidazol-1-yl)propan-1-one] |  |  | 100 (≈ 256 µM) | 25 (≈ 63.9 µM) |  | 100 (≈ 256 µM) | 25 (≈ 63.9 µM) |  | 100 (≈ 256 µM) | 25 (≈ 63.9 µM) | 50 (≈ 128 µM) | 100 (≈ 256 µM) | 25 (≈ 63.9 µM) |  |  |  |
| O=C(Cc1ccccc1)C(Cn1ccnc1)c1ccccc1 (stereo not drawn) [Example 25, 1,3-Diphenyl-4-(imidazol-1-yl)butan-2-one] | 1.5 (≈ 5.17 µM) | 0.8 (≈ 2.76 µM) |  | 12.5 (≈ 43 µM) | 0.8 (≈ 2.76 µM) |  | 25 (≈ 86.1 µM) | 25 (≈ 86.1 µM) |  | 25 (≈ 86.1 µM) | 25 (≈ 86.1 µM) |  | 25 (≈ 86.1 µM) | 50 (≈ 172 µM) | 100 (≈ 344 µM) | MIC ([5]; strain K, read-out: MIC): 6.2 µg/mL (≈ 21.4 µM); MIC [10]: 0.8 µg/mL (≈ 2.76 µM); MIC ([13]; strain H): 25 µg/mL (≈ 86.1 µM) |
| Cc1ncc([N+](=O)[O-])n1CCO [Metronidazole, reference compound] | 0.3 (≈ 1.75 µM) |  |  |  | 0.08 (≈ 0.467 µM) |  |  | 10 (≈ 58.4 µM) | 0.8 (≈ 4.67 µM) | 0.8 (≈ 4.67 µM) |  | 0.8 (≈ 4.67 µM) |  | 10 (≈ 58.4 µM) | 10 (≈ 58.4 µM) | MIC [4]: 10 µg/mL (≈ 58.4 µM); MIC (Minimum Inhibitory Concentration) [4, 16]: 10.9 µg/mL and 10.0 µg/mL and 10 µg/mL; MIC ([5]; strain K, read-out: MIC): 0.6 µg/mL (≈ 3.51 µM); MIC ([9]; strain O, read-out: MIC): 10 µg/mL (≈ 58.4 µM); MBC (Minimum Bactericidal Concentration) [12, 17]: 1.2 µg/mL and 0.6 µg/mL; MIC (Minimum Inhibitory Concentration) ([12]; 48 hours at 37° C., anaerobic): 0.6 µg/mL and 1.2 µg/mL; MBC [15]: 1.2 µg/mL (≈ 7.01 µM); MBC (Minimum Bactericidal Concentration) [15, 18]: 1.2 µg/mL and 0.6 µg/mL |
